Legend:
[1] = Stability study at 25° C./60% RH, 40° C./75% RH and 60° C. (XRPD, HPLC purity, impurity tracking); conditions: for HPLC: based on free acid; for XRPD: * = crystalline salt
Description: Stability of HBI-3808 Sodium Salt Pattern 2 was studied over 13 weeks.
Table 2F presents impurity tracking results from a 13-week stability study of HBI-3808 sodium salt of Pattern 2. […]

[2] = Varying humidity (VH)-XRPD; format: physicochemical; conditions: 0-90% RH
Experimental: During the sorption phase, sodium salt Pattern 2 was observed between 40-60% RH. […] A mixture of sodium salt Pattern 2 and 5 was also observed at 80% RH. […] During the second desorption, from 90% RH to 40% RH, sodium salt Pattern 5 was maintained.
VH-XRPD analysis was carried out between 40-0% RH (FIG. 5L).

[3] = Hydration study in methanol/water aw 0.1, 0.5 and 0.9; format: physicochemical
Description: Hydration studies of ethanolamine salt.

[4] = 40° C./75% RH (open vial), 8 Weeks
[5] = 40° C./75% RH (open vial), 13 Weeks

HPLC ([1]; 40° C./75% RH (open vial), 4 Weeks): 97.5 % area | XRPD [1, 4]: 1* | HPLC [1, 4]: 96.9 % area | XRPD [1, 5]: 1* | HPLC [1, 5]: 97.4 % area | RRT 0.801 impurity ([1]; 40° C./75% RH, 1 week): 0.10 % area | RRT 0.970 impurity ([1]; 40° C./75% RH, 1 week): 0.14 % area | RRT 1.000 (HBI-3808) ([1]; 40° C./75% RH, 1 week): 97.28 % area | RRT 1.025 (Isomer of HBI-3808) ([1]; 40° C./75% RH, 1 week): 2.48 % area | Total Impurities ([1]; 40° C./75% RH, 1 week): 2.72 % area | RRT 0.970 impurity ([1]; 40° C./75% RH, 2 weeks): 0.12 % area | RRT 1.000 (HBI-3808) ([1]; 40° C./75% RH, 2 weeks): 97.26 % area | RRT 1.025 (Isomer of HBI-3808) ([1]; 40° C./75% RH, 2 weeks): 2.40 % area | RRT 1.935 impurity ([1]; 40° C./75% RH, 2 weeks): 0.22 % area | Total Impurities ([1]; 40° C./75% RH, 2 weeks): 2.74 % area | RRT 0.970 impurity ([1]; 40° C./75% RH, 4 weeks): 0.11 % area | RRT 1.025 (Isomer of HBI-3808) ([1]; 40° C./75% RH, 4 weeks): 2.41 % area | Total Impurities ([1]; 40° C./75% RH, 4 weeks): 2.52 % area | RRT 0.970 impurity ([1]; 40° C./75% RH, 8 weeks): 0.21 % area | RRT 1.000 (HBI-3808) ([1]; 40° C./75% RH, 8 weeks): 96.88 % area | RRT 1.025 (Isomer of HBI-3808) ([1]; 40° C./75% RH, 8 weeks): 2.51 % area | RRT 1.767 impurity ([1]; 40° C./75% RH, 8 weeks): 0.40 % area | Total Impurities ([1]; 40° C./75% RH, 8 weeks): 3.12 % area | RRT 1.000 (HBI-3808) ([1]; 40° C./75% RH, 13 weeks): 97.41 % area | RRT 1.025 (Isomer of HBI-3808) ([1]; 40° C./75% RH, 13 weeks): 2.40 % area | RRT 1.935 impurity ([1]; 40° C./75% RH, 13 weeks): 0.20 % area | Total Impurities ([1]; 40° C./75% RH, 13 weeks): 2.59 % area | RRT 1.000 (HBI-3808) ([1]; 40° C./75% RH, T = 0): 97.82 % area | RRT 1.025 (Isomer of HBI-3808) ([1]; 40° C./75% RH, T = 0): 2.18 % area | Total Impurities ([1]; 40° C./75% RH, T = 0): 2.18 % area | HPLC/ % area ([1]; 60° C. (closed vial), 13 Weeks): 97.4 % area | XRPD ([1]; 60° C. (closed vial), 1 Week): 1* | HPLC ([1]; 60° C. (closed vial), 1 Week): 97.5 % area | XRPD ([1]; 60° C. (closed vial), 2 Weeks): 1* | HPLC ([1]; 60° C. (closed vial), 2 Weeks): 97.3 % area | XRPD ([1]; 60° C. (closed vial), 4 Weeks): 1* | HPLC ([1]; 60° C. (closed vial), 4 Weeks): 97.5 % area | XRPD ([1]; 60° C. (closed vial), 8 Weeks): 1* | HPLC ([1]; 60° C. (closed vial), 8 Weeks): 97.0 % area | XRPD ([1]; 60° C. (closed vial), 13 Weeks): 1* | HPLC ([1]; 60° C. (closed vial), 13 Weeks): 97.4 % area | RRT 0.801 impurity ([1]; 60° C., 1 week): 0.12 % area | RRT 1.000 (HBI-3808) ([1]; 60° C., 1 week): 97.46 % area | RRT 1.025 (Isomer of HBI-3808) ([1]; 60° C., 1 week): 2.43 % area | Total Impurities ([1]; 60° C., 1 week): 2.54 % area | RRT 0.970 impurity ([1]; 60° C., 2 weeks): 0.12 % area | RRT 1.000 (HBI-3808) ([1]; 60° C., 2 weeks): 97.27 % area | RRT 1.025 (Isomer of HBI-3808) ([1]; 60° C., 2 weeks): 2.41 % area | RRT 1.935 impurity ([1]; 60° C., 2 weeks): 0.20 % area | Total Impurities ([1]; 60° C., 2 weeks): 2.73 % area | RRT 0.970 impurity ([1]; 60° C., 4 weeks): 0.11 % area | RRT 1.000 (HBI-3808) ([1]; 60° C., 4 weeks): 97.49 % area | RRT 1.025 (Isomer of HBI-3808) ([1]; 60° C., 4 weeks): 2.40 % area | Total Impurities ([1]; 60° C., 4 weeks): 2.51 % area | RRT 0.970 impurity ([1]; 60° C., 8 weeks): 0.12 % area | RRT 1.000 (HBI-3808) ([1]; 60° C., 8 weeks): 97.04 % area | RRT 1.025 (Isomer of HBI-3808) ([1]; 60° C., 8 weeks): 2.49 % area | RRT 1.767 impurity ([1]; 60° C., 8 weeks): 0.35 % area | Total Impurities ([1]; 60° C., 8 weeks): 2.96 % area | RRT 1.000 (HBI-3808) ([1]; 60° C., 13 weeks): 97.41 % area | RRT 1.025 (Isomer of HBI-3808) ([1]; 60° C., 13 weeks): 2.41 % area | RRT 1.935 impurity ([1]; 60° C., 13 weeks): 0.18 % area | Total Impurities ([1]; 60° C., 13 weeks): 2.59 % area | RRT 1.000 (HBI-3808) ([1]; 60° C., T = 0): 97.82 % area | RRT 1.025 (Isomer of HBI-3808) ([1]; 60° C., T = 0): 2.18 % area | Total Impurities ([1]; 60° C., T = 0): 2.18 % area | input purity by HPLC ([1]; input material of the stability study (baseline)): 97.5 % area | XRPD pattern / form stability over relative humidity [2]: no changes in XRPD Pattern | XRPD of solids recovered at the end of the experiment [3]: consistent with ethanolamine salt
SMILES: C[C@@H]1CC[C@]2(C(=O)O)CC[C@]3(C)C(=CC[C@@H]4[C@@]5(C)C[C@@H](O)[C@H](O)[C@@](C)(CO)[C@@H]5CC[C@]43C)[C@@H]2[C@]1(C)O.NCCO [ethanolamine salt of HBI-3808, ETHANOLAMINE SALT OF 23-HYDROXYTORMENTIC ACID]

From patent US20250326785A1, “SODIUM SALT AND ETHANOLAMINE SALT OF 23-HYDROXYTORMENTIC ACID” (HUYABIO International, LLC, priority 2024, published 2025)
